Experimental data: ChEMBL document CHEMBL1201862, “PubChem BioAssay data set” (2004)
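48-hour exposure; five concentrations; linearly interpolated endpoints. GI50 is the concentration that inhibits growth by half.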 Activity calls are given as the source filed them. Rule as the data show it: active = GI50 up to about 1.1 µM and inactive = higher.

Assays:
Test in all cases: DTP human tumour cell line panel, 48 h
UACC-62 = tested on: UACC-62
SK-MEL-5 = tested on: SK-MEL-5
SK-MEL-28 = tested on: SK-MEL-28
MOLT-4 = tested on: MOLT-4
HCC 2998 = tested on: HCC 2998
MDA-MB-435 = tested on: MDA-MB-435
K562 = tested on: K562
BT-549 = tested on: BT-549
ACHN = tested on: ACHN
MDA-MB-231 = tested on: MDA-MB-231
PC-3 = tested on: PC-3
COLO 205 = tested on: COLO 205
CAKI-1 = tested on: CAKI-1
RPMI-8226 = tested on: RPMI-8226
KM12 = tested on: KM12
DU-145 = tested on: DU-145
OVCAR-5 = tested on: OVCAR-5
NCI-H460 = tested on: NCI-H460
M14 = tested on: M14
SK-MEL-2 = tested on: SK-MEL-2
HCT-116 = tested on: HCT-116
A498 = tested on: A498
UACC-257 = tested on: UACC-257
HCT-15 = tested on: HCT-15
UO-31 = tested on: UO-31
HOP-92 = tested on: HOP-92
SF-268 = tested on: SF-268
SW-620 = tested on: SW-620
OVCAR-4 = tested on: OVCAR-4
SN12C = tested on: SN12C
MCF7 = tested on: MCF7
EKVX = tested on: EKVX
NCI-H23 = tested on: NCI-H23
SK-OV-3 = tested on: SK-OV-3
SNB-19 = tested on: SNB-19
HOP-62 = tested on: HOP-62
SF-295 = tested on: SF-295
NCI-H522 = tested on: NCI-H522
786-0 = tested on: 786-0
U-251 = tested on: U-251
NCI-H226 = tested on: NCI-H226
HT-29 = tested on: HT-29
SNB-75 = tested on: SNB-75
TK-10 = tested on: TK-10
A549 = tested on: A549
NCI/ADR-RES = tested on: NCI/ADR-RES
IGROV-1 = tested on: IGROV-1
T47D = tested on: T47D
Malme-3M = tested on: Malme-3M
RXF 393 = tested on: RXF 393
SR = tested on: SR
CCRF-CEM = tested on: CCRF-CEM
OVCAR-3 = tested on: OVCAR-3
SF-539 = tested on: SF-539
HL-60 = tested on: HL-60
LOX IMVI = tested on: LOX IMVI
Hs-578T = tested on: Hs-578T
MDA-N = tested on: MDA-N
OVCAR-8 = tested on: OVCAR-8

`S=c1oc(CCCCCCCCc2nn(CNc3ccccc3)c(=S)o2)nn1CNc1ccccc1` was tested, and the GI50 (UACC-62) was > 100 µM (inactive), the GI50 (SK-MEL-5) was > 100 µM (inactive) and the GI50 (SK-MEL-28) was > 100 µM (inactive). For the same compound, the GI50 (MOLT-4) was > 100 µM (inactive), the GI50 (HCC 2998) was > 100 µM (inactive) and the GI50 (MDA-MB-435) was > 100 µM (inactive). The GI50 (K562) was 57.5 µM (inactive), the GI50 (BT-549) was > 100 µM (inactive) and the GI50 (ACHN) was > 100 µM (inactive). For the same compound, the GI50 (MDA-MB-231) was > 100 µM (inactive), the GI50 (PC-3) was > 100 µM (inactive) and the GI50 (COLO 205) was > 100 µM (inactive). For the same compound, the GI50 (CAKI-1) was > 100 µM (inactive), the GI50 (RPMI-8226) was > 100 µM (inactive) and the GI50 (KM12) was > 100 µM (inactive). The GI50 (DU-145) was > 100 µM (inactive), the GI50 (OVCAR-5) was > 100 µM (inactive) and the GI50 (NCI-H460) was > 100 µM (inactive). For the same compound, the GI50 (M14) was > 100 µM (inactive), the GI50 (SK-MEL-2) was > 100 µM (inactive) and the GI50 (HCT-116) was > 100 µM (inactive). The GI50 (A498) was > 100 µM (inactive), the GI50 (UACC-257) was > 100 µM (inactive) and the GI50 (HCT-15) was greater than 100 µM. The GI50 (UO-31) was > 100 µM (inactive), the GI50 (HOP-92) was > 100 µM (inactive) and the GI50 (SF-268) was > 100 µM (inactive). For the same compound, the GI50 (SW-620) was > 100 µM (inactive), the GI50 (OVCAR-4) was > 100 µM (inactive) and the GI50 (SN12C) was > 100 µM (inactive). For the same compound, the GI50 (MCF7) was > 100 µM (inactive), the GI50 (EKVX) was > 100 µM (inactive) and the GI50 (NCI-H23) was > 100 µM (inactive). The GI50 (SK-OV-3) was > 100 µM (inactive), the GI50 (SNB-19) was > 100 µM (inactive) and the GI50 (HOP-62) was > 100 µM (inactive). For the same compound, the GI50 (SF-295) was > 100 µM (inactive), the GI50 (NCI-H522) was > 100 µM (inactive) and the GI50 (786-0) was > 100 µM (inactive). For the same compound, the GI50 (U-251) was > 100 µM (inactive), the GI50 (NCI-H226) was > 100 µM (inactive) and the GI50 (HT-29) was > 100 µM (inactive). For the same compound, the GI50 (SNB-75) was > 100 µM (inactive), the GI50 (TK-10) was > 100 µM (inactive) and the GI50 (A549) was > 100 µM (inactive). The GI50 (NCI/ADR-RES) was > 100 µM (inactive).
In the case of `CC(NC1=NCCO1)c1ccccc1Cl` (centres undefined), the GI50 (UACC-62) is reported as > 100 µM (inactive), the GI50 (IGROV-1) is reported as > 100 µM (inactive) and the GI50 (SK-MEL-5) is reported as > 100 µM (inactive). For the same compound, the GI50 (SK-MEL-28) was > 100 µM (inactive), the GI50 (MOLT-4) was 91.8 µM (inactive) and the GI50 (HCC 2998) was > 100 µM (inactive). For the same compound, the GI50 (MDA-MB-435) was > 100 µM (inactive), the GI50 (K562) was > 100 µM (inactive) and the GI50 (T47D) was > 100 µM (inactive). For the same compound, the GI50 (ACHN) was > 100 µM (inactive), the GI50 (MDA-MB-231) was > 100 µM (inactive) and the GI50 (PC-3) was 91 µM (inactive). The GI50 (Malme-3M) was > 100 µM (inactive), the GI50 (COLO 205) was > 100 µM (inactive) and the GI50 (CAKI-1) was > 100 µM (inactive). For the same compound, the GI50 (RPMI-8226) was > 100 µM (inactive), the GI50 (RXF 393) was > 100 µM (inactive) and the GI50 (KM12) was > 100 µM (inactive). For the same compound, the GI50 (DU-145) was > 100 µM (inactive), the GI50 (OVCAR-5) was > 100 µM (inactive) and the GI50 (NCI-H460) was > 100 µM (inactive). The GI50 (M14) was > 100 µM (inactive), the GI50 (SK-MEL-2) was > 100 µM (inactive) and the GI50 (HCT-116) was 60.4 µM (inactive). The GI50 (A498) was > 100 µM (inactive), the GI50 (UACC-257) was > 100 µM (inactive) and the GI50 (HCT-15) was greater than 100 µM. For the same compound, the GI50 (UO-31) was > 100 µM (inactive), the GI50 (HOP-92) was < 0.01 µM (active) and the GI50 (SR) was > 100 µM (inactive). The GI50 (CCRF-CEM) was > 100 µM (inactive), the GI50 (SF-268) was > 100 µM (inactive) and the GI50 (SW-620) was > 100 µM (inactive). The GI50 (OVCAR-3) was > 100 µM (inactive), the GI50 (OVCAR-4) was > 100 µM (inactive) and the GI50 (SN12C) was > 100 µM (inactive). For the same compound, the GI50 (MCF7) was > 100 µM (inactive), the GI50 (EKVX) was > 100 µM (inactive) and the GI50 (NCI-H23) was > 100 µM (inactive). For the same compound, the GI50 (SK-OV-3) was > 100 µM (inactive), the GI50 (SNB-19) was > 100 µM (inactive) and the GI50 (SF-539) was 27.2 µM (inactive). For the same compound, the GI50 (HL-60) was > 100 µM (inactive), the GI50 (LOX IMVI) was > 100 µM (inactive) and the GI50 (HOP-62) was > 100 µM (inactive). The GI50 (SF-295) was > 100 µM (inactive), the GI50 (NCI-H522) was > 100 µM (inactive) and the GI50 (786-0) was > 100 µM (inactive). For the same compound, the GI50 (U-251) was > 100 µM (inactive), the GI50 (NCI-H226) was 58.1 µM (inactive) and the GI50 (HT-29) was 25.1 µM (inactive). The GI50 (Hs-578T) was > 100 µM (inactive), the GI50 (SNB-75) was 96.2 µM (inactive) and the GI50 (TK-10) was > 100 µM (inactive). The GI50 (A549) was > 100 µM (inactive), the GI50 (NCI/ADR-RES) was > 100 µM (inactive) and the GI50 (MDA-N) was > 100 µM (inactive). The GI50 (OVCAR-8) was > 100 µM (inactive).
